Measurements: patent EP0410372A1, “Process for preparing human splenin derivatives” (BERLIN-CHEMIE AG, priority 1989, dated 1991)

Columns and labels:
[1] = system: Antikörperbildung gegen Schafserythrozyten (Plaquebildende Milzzellen); experiment: Antibody formation against sheep erythrocytes (JERNE plaque test, IgM plaque-forming spleen cells) in X-irradiated, bone-marrow-transplanted mice; assay type: in vivo, AB/Bln.-Mäuse
Excerpt: (§1) Zum Nachweis der immunologischen Wirkungen wurden folgende Modelle verwendet: - "Kolonien - Bildung" ("Kolonien" - Bildungstest ) durch menschliche Knochenmarkzellen nach Kultivierung der Zellen mit dem menschlichen Granulocyten - Makrophagen - "Kolonien" - stimulierenden Faktor (hGM-CSF) und Spleninderivaten. - die Antikörperbildung gegen Schafserythrozyten ( Plaquebildende Milzzellen ) durch Ab/Bln.-Mäuse nach Röntgenbestrahlung (Tabelle 2).
Es wurden drei Monate alte AB/Bln.-Mäuse einmalig mit 800 cGy röntgenbestrahlt. Danach wurden die Tiere in drei Gruppen aufgeteilt und folgendermaßen weiterbehandelt: • Gruppe 1: Nach der Bestrahlung wurde den Tieren Knochenmarkzellen von Tieren des gleichen Inzuchtstammes transplantiert (Injektion von je 5 mal 10⁶ Knochenmarkzellen pro Tier). […] In differenten Zeitabständen nach der Bestrahlung und während der DAc-hSP5-Behandlung wurde mittels des JERNE-Plaque-Testes die Fähigkeit der Tiere untersucht, Antikörper zu bilden. • Gruppe 2: Gleiche Behandlung der Tiere wie in Gruppe 1, jedoch keine Therapie der Tiere mit DAc-hSP5. • Gruppe 3: Alleinige Röntgenbestrahlung der Tiere; keine Transplantation syngener Knochenmarkzellen, keine Therapie der Tiere mit DAc-hSP5.
Fünf Tage vor der Bestimmung der IgM Plaque-bildenden Milzzellen (Tage, angegeben in Tabelle 2) wurden die Tiere mit 5 x 10⁸ Schafserythrozyten immunisiert (intaperitoneale Applikation). Methodik: Eckert et.al., Biomed. Biochem. Acta, 1985, (44), 1239.

[2] = system: menschliche Knochenmarkzellen; experiment: Colony formation test: human bone marrow cells cultured with hGM-CSF and splenin derivatives; assay type: cell-based; conditions: human bone marrow cells with hGM-CSF; Tab.1, Nr.6
Excerpt: as §1
Stimulierung des Wachstums und der Reifung von Knochenmarkstammzellen (in vitro)
Die Anzahl der gebildeten "Kolonien" ist dabei ein Maß für die mitotische bzw. differenzierende Wirkung der Faktoren auf die Knochenmarkzellen. Da Thymopentin in diesem Testsystem (Tab.1, Nr.6) keine Wirkung zeigte, ist anzunehmen, daß die immunstimulierende Wirkung von Timunox nicht über eine Wirkung auf Stammzellen des Knochenmarks zustande kommt.

## (N^α-Acetyl)-arginyl-(N^ε-acetyl)-lysylalanylvalyltyrosin [DAc-hSP5]
[1]; 1 µg per animal i.p. three times weekly
  Effekt auf die Antikörperbildung: nicht wirksam
[1]; 2 µg per animal i.p. three times weekly
  Effekt auf die Antikörperbildung: nicht wirksam
[1]; 4 µg per animal i.p. three times weekly
  Effekt auf die Antikörperbildung: nicht wirksam
[1]; 8 µg per animal i.p. three times weekly
  Effekt auf die Antikörperbildung: suboptimal
[1]; 10 ug per animal i.p. three times weekly
  Effekt auf die Antikörperbildung: optimalen Effekt
[1]; 20 µg per animal i.p. three times weekly
  Effekt auf die Antikörperbildung: Effekt wie nach der von 10 ug
[1]; 50 µg per animal i.p. three times weekly
  Effekt auf die Antikörperbildung: Effekt wie nach der von 10 ug
[1]; 800 cGy, syngeneic bone marrow transplant, 10 µg per animal i.p. three times weekly, Tabelle 2
  Antikörperbildung (IgM Plaque-bildende Milzzellen): beschleunigt zu einer normalen Antikörperbildung befähigt

## Thymopentin
[2]
  Wirkung im "Kolonien"-Bildungstest (Anzahl der gebildeten "Kolonien"): keine Wirkung
